Patent US20060121180A1, “Metallic structures incorporating bioactive materials and methods for creating the same” (Medlogics Device Corporation, priority 2001, published 2006)

What was measured:
[1] = Drug elution from coated stents into physiologic saline solution (spectrophotometric assay); format: physicochemical; details: Bx Velocity (316L) and Smart (nitinol) stents with Ni-P coating, physiologic saline changed daily (FIGS. 6 and 7)
Excerpt: Coated stents were formed using the same basic electroless deposition procedure in Example 1. However, in this example, instead of foil substrates, Johnson and Johnson Bx velocity stents (stainless steel) and Johnson and Johnson Smart stents (nitinol) were used as substrates. Bioactive composite structures in the form of layers were formed on the stents.
The amounts on the y-axis of the graphs represent the amount of bioactive material remaining on the stent after elution into a physiologic saline solution.
A similar anodization process as was used in the stent examples as was again applied to the foil substrates. After coating, the coated stent was placed in a physiologic saline solution and the solution changed daily. On the indicated days, the stent coatings were anodized. The amount of bioactive material released in each case was determined using a spectrophotometric assay.

[2] = Optical absorbance of elution bath from coated 316L stainless steel sample in 0.9% saline; format: physicochemical; details: 1 cm2 316L stainless steel sample
Excerpt: Table 3 depicts several experiments following the general procedures outlined in example 1, each with one time point and for a new bioactive material. M is the difference in absorbance between an elution bath from the sample containing the respective bioactive material and the absorbance from a sample with pure coating (i.e. control). In this instance, a 1 cm2 medical grade 316L stainless steel sample was coated using the above mentioned process.
M refers to the absorbance difference between coated with bioactive material and coated without bioactive material.

Compound	time over which appreciable amounts were released [1] [days]	ΔA (absorbance difference, coated with vs without bioactive material) ([2]; Time = 0, immediately after deposition)	ΔA (absorbance difference, coated with vs without bioactive material) ([2]; after seven days in 0.9% saline solution, characteristic absorbance wavelength in parentheses)
O=c1[nH]cc(F)c(=O)[nH]1 [Fluorouracil, 5-fluorouracil]	40	–	–
heparin	–	0	2.4 (230 nm)
albumin	40	–	–
